This note sets out measurements from patent US7763772B2, “Activation of the arabidopsis hypertall (HYT1/YUCCA6) locus affects several auxin mediated responses” (Purdue Research Foundation, priority 2006, dated 2010).

Data set [1] deals with Arabidopsis thaliana plants (wild-type, yucca6-1D, yucca6-2D). In words: Resistance to the toxic Trp analog 5-methyl-Trp in MS medium. The format is in vivo. Particulars: MS medium containing 80 NM 5-methyl-Trp. The text has this: It has been proposed that plants use […] and Trp-independent routes to synthesize auxin (Normanly et al., 1993; Müller and Weiler, 2000; Woodward and Bartel, 2005). To investigate in which pathway YUCCA6 may participate, we tested the resistance of yucca6-1D and yucca6-2D to the toxic Trp analog, 5-methyl-Trp.

The next data set has as its system YUCCA6 gene expression. The experiment in a line: YUCCA6 gene expression after hormone treatment (RT-PCR). It counts as in vivo, Arabidopsis thaliana. The following applies: RNA from 2-week old seedlings including roots. The procedure:
(§1) YUCCA gene expression was checked by RT-PCR. RNA was prepared from 2-week old seedlings including roots. […] UBC was used as a loading control.
(§2) Arabidopsis YUCCA6 is one of 11 yucca family members. YUCCA6 belongs to the same sub-family with YUCCA2. We determined if YUCCA6 gene expression is regulated by ABA.

The subject of a further data set is YUCCA2 gene expression. The experiment in a line: YUCCA2 gene expression after ABA treatment (RT-PCR). Particulars: RNA from 2-week old seedlings including roots. The format is in vivo, Arabidopsis thaliana. The procedure:
as §1, §2

The subject of the next data set is YUCCA 1 gene expression. In words: YUCCA1 gene expression after ABA treatment (RT-PCR). It counts as in vivo, Arabidopsis thaliana. Particulars: RNA from 2-week old seedlings including roots. The procedure: as §1, §2
Data set [2] addresses T1, MBP:YUCCA6 fusion protein (Arabidopsis thaliana, UniProt Q8VZ59).
T1 construct: The full-length YUCCA6 ORF was synthesized from Col-0 cDNA by PCR amplification and subcloned into the expression vector pMAL-c2; made in house; host or cells: Escherichia coli BL21
T1 sequence (Q8VZ59 1-417): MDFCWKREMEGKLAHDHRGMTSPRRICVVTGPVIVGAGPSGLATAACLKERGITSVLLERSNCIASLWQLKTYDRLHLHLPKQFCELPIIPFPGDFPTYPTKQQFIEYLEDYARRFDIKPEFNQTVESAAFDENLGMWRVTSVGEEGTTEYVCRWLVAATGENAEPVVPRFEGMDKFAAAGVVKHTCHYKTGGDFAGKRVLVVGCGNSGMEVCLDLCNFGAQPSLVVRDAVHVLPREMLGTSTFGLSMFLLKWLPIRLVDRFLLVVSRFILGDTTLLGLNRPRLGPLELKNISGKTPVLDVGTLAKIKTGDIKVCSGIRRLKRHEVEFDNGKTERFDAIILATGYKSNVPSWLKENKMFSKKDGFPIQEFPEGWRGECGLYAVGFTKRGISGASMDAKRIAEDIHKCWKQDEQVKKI
The experiment in a line: Recombinant YUCCA6 enzyme activity (substrate-dependent NADPH oxidation). The format is biochemical. The following applies: tryptamine as a substrate; 0.1 mM NADPH, pH 8.0, 22° C. The text has this: (§3) It has been reported that maltose-binding protein (MBP):YUCCA1 fusion proteins have catalytic activity to convert tryptamine to N-hydroxyl tryptamine (Zhao et al., 2001). To investigate if YUCCA6 also is involved in oxidation of tryptamine, we tested YUCCA6 activity with MBP:YUCCA6 fusion protein expressed in and purified from bacteria. It is known that FMOs oxidize NADPH by transfer of electrons to oxygen. […] The catalytic activity of YUCCA6 for oxidation of tryptamine, together with resistance of yucca6 mutants to 5-methyl-Trp, strongly implies that YUCCA6 has an important function in Trp-dependent auxin biosynthesis.
(§4) The full-length YUCCA6 ORF was synthesized from Col-0 cDNA by PCR amplification and subcloned into the expression vector pMAL-c2. […] The protein contents were measured using BIO-RAD Protein Assay (no. 500-0006), and protein was separated by SDS-PAGE.
(§5) The activities of MBP:YUCCA6 and MBP proteins were measured by determining the rates of substrate-dependent NADPH oxidation consumption. […] The rates of NADPH oxidation caused by addition of tryptamine were monitored at 340 nm for 5 minutes at 22° C. using a UV-visible spectrophotometer (model UV-1601; Shimazu). The change in absorbance per minute was converted to micromoles NADPH consumed per minute using the extinction coefficient 6,220 M^−1 cm^−1 for NADPH. […]

Substrate in data set [3]: NCCc1c[nH]c2ccccc12
The data set is described as above. It counts as biochemical, Arabidopsis thaliana. Particulars: other: tryptamine as a substrate, 0.1 mM NADPH, pH 8.0, 22° C.
Description: as §3, §4, §5

Usually Km stands for the concentration of substrate that gives half-maximal velocity.

`Cc1ccc2[nH]cc(C[C@H](N)C(=O)O)c2c1` [5-methyl-Trp]: the “survival and growth of wild-type plants” value in data set [1] (wild-type plants) is recorded as “could not”. Further, the “survival and growth of yucca6-1D plants” value in data set [1] (yucca6-1D) is “could survive and grow”. Besides, the “survival and growth of yucca6-2D plants” value in data set [1] (yucca6-2D) is “could survive and grow”. `CC1=CC(=O)CC(C)(C)[C@@]1(O)/C=C/C(C)=C\C(=O)O` [ABA, Abscisic Acid]: the “regulation of YUCCA6 transcript level” value in the data set on YUCCA6 gene expression is reported as “down-regulated”. Moreover, the “regulation of YUCCA2 gene expression” value in the data set with YUCCA2 gene expression was “down-regulated”. In addition, the “regulation of YUCCA 1 gene expression” value with YUCCA 1 gene expression is listed as “does not change”. For the molecule `NC1(C(=O)O)CC1` [ACC, 1-aminocylopropane-1-carboxylic acid], the “regulation of YUCCA6 transcript level” value with YUCCA6 gene expression is “could not regulate”. Regarding `NCCc1c[nH]c2ccccc12` [tryptamine], the Vmax in data set [2] came to 9.46 Nmol NADPH min^−1 mg^−1.

B1: MBP:YUCCA6 fusion protein (Arabidopsis thaliana) (protein)
chain: T1 sequence (Q8VZ59 1-417)
notes: The full-length YUCCA6 ORF was synthesized from Col-0 cDNA by PCR amplification and subcloned into the expression vector pMAL-c2; made in house; host or cells: Escherichia coli BL21
For B1, the Michaelis-Menten constant (Km) in data set [3] amounted to 274 µM.
